# Data from US20030162803A1, “Anhydrovinblastine for the treatment of cancer” (priority 1997, published 2003).
# What was measured:
# [1] = tested on: advanced refractory solid tumors; test: Phase I clinical trial, disease response; type: in vivo, human patients
# Description: Patients had normal bone marrow, hepatic and renal function. Twenty-four patients were treated with escalating doses of AHVB, administered as a 1 hour infusion every 3 weeks. The 24 patients comprised 12 male and 12 female patients with a median age of 60 years (range 27-75 years). Twenty-one of the 24 patients were evaluable. Diagnoses were non-small cell lung cancer (NSCLC), colorectal cancer, soft tissue sarcoma, pancreatic cancer, breast cancer and metastatic neuroendocrine cancer in 11, 5, 4, 1, 1, and 1 patient(s), respectively. […] A total of 51 courses were administered at doses of 2.5, 5, 10,16.5, 21,25 and 30 mg/m^2 to 1,3, 1,3, 6, 6 and 1 patient(s), respectively (see Table 4).
# [2] = Phase I clinical trial, pharmacokinetics (serum, HPLC, 2-compartment model); type: in vivo, human patients; design: AUC: unit not given here
# Description: AHVB blood serum concentrations were measured at 0, 0.33, 0.67, 1, 1.25, 1.5, 2, 4, 6, 8, 12, 24, 48, and 72 hrs after the start of each infusion. […] The serum extracts were assayed using high pressure liquid chromatography (HPLC) and were fit to a 2-compartment pharmacokinetic model for determination of pharmacokinetic parameters (see Table 5).
# There appears to be no significant change in clearance observed between smaller and larger doses (p>0.2 by linear regression). […] Similarly, AUC appeared to increase linearly with dose (r^2=0.82, p<0.05) (FIG. 12).
structure (smiles),measurement,setting,value
"CCC1=C[C@H]2CN(CCc3c([nH]c4ccccc34)[C@@](C(=O)OC)(c3cc4c(cc3OC)N(C)[C@H]3[C@@](O)(C(=O)OC)[C@H](OC(C)=O)[C@]5(CC)C=CCN6CC[C@]43[C@@H]65)C2)C1 [AHVB, 3′,4′-anhydrovinblastine]",stable disease,"[1]; metastatic NSCLC, 21 and 25 mg/m^2",three patients
same,stable disease,"[1]; metastatic sarcoma to lungs, 10 mg/M^2",one patient
same,"pharmacokinetics, dose linearity","[2]; 2.5-30 mg/m^2, 1 hour infusion",linear
same,T1/2 al,"[2]; All Data, N 20, Max",0.393 h
same,T1/2 be,"[2]; All Data, N 20, Max",63.10 h
same,T1/2 al (alpha half-life),"[2]; All Data, N 20, Mean",0.19 h
same,T1/2 be (beta half-life),"[2]; All Data, N 20, Mean",20.8 h
same,T1/2 al,"[2]; All Data, N 20, Median",0.17 h
same,T1/2 be,"[2]; All Data, N 20, Median",17.60 h
same,T1/2 al,"[2]; All Data, N 20, Min",0.07 h
same,T1/2 be,"[2]; All Data, N 20, Min",6.63 h
same,A,"[2]; dose 2.5 mg/m^2, N 1, Value",134.71 ng/mL
same,AUC,"[2]; dose 2.5 mg/m^2, N 1, Value",71.64
same,B,"[2]; dose 2.5 mg/m^2, N 1, Value",5.03 ng/mL
same,Cmax,"[2]; dose 2.5 mg/m^2, N 1, Value",28.23 ng/mL
same,T1/2 al,"[2]; dose 2.5 mg/m^2, N 1, Value",0.12 h
same,T1/2 be,"[2]; dose 2.5 mg/m^2, N 1, Value",6.63 h
same,A,"[2]; dose 5 mg/m^2, N 3, Max",531.52 ng/mL
same,AUC,"[2]; dose 5 mg/m^2, N 3, Max",793.39
same,B,"[2]; dose 5 mg/m^2, N 3, Max",9.73 ng/mL
same,Cmax,"[2]; dose 5 mg/m^2, N 3, Max",62.40 ng/mL
same,T1/2 al,"[2]; dose 5 mg/m^2, N 3, Max",0.17 h
same,T1/2 be,"[2]; dose 5 mg/m^2, N 3, Max",63.13 h
same,A,"[2]; dose 5 mg/m^2, N 3, Mean",281.82 ng/mL
same,AUC,"[2]; dose 5 mg/m^2, N 3, Mean",571.75
same,B,"[2]; dose 5 mg/m^2, N 3, Mean",8.04 ng/mL
same,Cmax,"[2]; dose 5 mg/m^2, N 3, Mean",51.37 ng/mL
same,T1/2 al,"[2]; dose 5 mg/m^2, N 3, Mean",0.14 h
same,T1/2 be,"[2]; dose 5 mg/m^2, N 3, Mean",44.36 h
same,A,"[2]; dose 5 mg/m^2, N 3, Median",178.39 ng/mL
same,AUC,"[2]; dose 5 mg/m^2, N 3, Median",639.67
same,B,"[2]; dose 5 mg/m^2, N 3, Median",8.11 ng/mL
same,Cmax,"[2]; dose 5 mg/m^2, N 3, Median",53.07 ng/mL
same,T1/2 al,"[2]; dose 5 mg/m^2, N 3, Median",0.17 h
same,T1/2 be,"[2]; dose 5 mg/m^2, N 3, Median",42.41 h
same,A,"[2]; dose 5 mg/m^2, N 3, Min",135.55 ng/mL
same,AUC,"[2]; dose 5 mg/m^2, N 3, Min",282.20
same,B,"[2]; dose 5 mg/m^2, N 3, Min",6.27 ng/mL
same,Cmax,"[2]; dose 5 mg/m^2, N 3, Min",38.65 ng/mL
same,T1/2 al,"[2]; dose 5 mg/m^2, N 3, Min",0.07 h
same,T1/2 be,"[2]; dose 5 mg/m^2, N 3, Min",27.54 h
same,A,"[2]; dose 10 mg/m^2, N 1, Value",109.85 ng/mL
same,AUC,"[2]; dose 10 mg/m^2, N 1, Value",247.19
same,B,"[2]; dose 10 mg/m^2, N 1, Value",11.49 ng/mL
same,Cmax,"[2]; dose 10 mg/m^2, N 1, Value",48.57 ng/mL
same,T1/2 al,"[2]; dose 10 mg/m^2, N 1, Value",0.25 h
same,T1/2 be,"[2]; dose 10 mg/m^2, N 1, Value",12.50 h
same,A,"[2]; dose 16.5 mg/m^2, N 5, Max",816.42 ng/mL
same,AUC,"[2]; dose 16.5 mg/m^2, N 5, Max",1791.22
same,B,"[2]; dose 16.5 mg/m^2, N 5, Max",34.16 ng/mL
same,Cmax,"[2]; dose 16.5 mg/m^2, N 5, Max",231.52 ng/mL
same,T1/2 al,"[2]; dose 16.5 mg/m^2, N 5, Max",0.39 h
same,T1/2 be,"[2]; dose 16.5 mg/m^2, N 5, Max",33.52 h
same,A,"[2]; dose 16.5 mg/m^2, N 5, Mean",509.47 ng/mL
same,AUC,"[2]; dose 16.5 mg/m^2, N 5, Mean",824.58
same,B,"[2]; dose 16.5 mg/m^2, N 5, Mean",22.50 ng/mL
same,Cmax,"[2]; dose 16.5 mg/m^2, N 5, Mean",163.03 ng/mL
same,T1/2 al,"[2]; dose 16.5 mg/m^2, N 5, Mean",0.22 h
same,T1/2 be,"[2]; dose 16.5 mg/m^2, N 5, Mean",21.35 h
same,A,"[2]; dose 16.5 mg/m^2, N 5, Median",478.82 ng/mL
same,AUC,"[2]; dose 16.5 mg/m^2, N 5, Median",541.21
same,B,"[2]; dose 16.5 mg/m^2, N 5, Median",21.87 ng/mL
same,Cmax,"[2]; dose 16.5 mg/m^2, N 5, Median",171.48 ng/mL
